Measurements taken from patent US9930888B2, “Composition” (Conopco, Inc., priority 2013, dated 2018).

Tested on: S. epidermidis
Experiment: bacterial respiration of S. epidermidis suspension in microplate
Assay type: cell-based
Settings: lactam pre-blended with hydrotrope, added to remainder of composition, diluted to 11.5 ppm and 0.575 ppm; 20 hours
Experimental: Test samples were diluted in sterile water to achieve a 11.5 ppm level of lactam. Dilute solution (80 μl) was added to a S. epidermidis suspension (20 μl) of bacteria at a concentration of 8 logs in a microplate. Growth media (100 μl tryptone soya broth) was added to each well of the microplate and incubated for 20 hours. Bacterial respiration was measured every 30 minutes and the results were: • A—lactam+hydrotrope only (respiration of surviving bacteria detected ˜4-5 h) • B—lactam added directly to base formulation (which contains MPG)—no pre-mixing prior to addition (respiration of surviving bacteria detected 4-5 hrs) • C—lactam pre-mixed with hydrotrope and then added to base formulation (respiration of surviving bacteria not detected—20 hrs is max detection time) • D—hydrotrope added to base formulation (respiration of surviving bacteria detected 3-4 hrs). The example below is from data obtained when pre-blending lactams with hydrotrope before adding to the remainder of the composition, and diluting to 11.5 ppm and 0.575 ppm in sterile water in order to assess efficacy against S. epidermidis suspension Dilute solution (80 μl) was added to a S. epidermidis suspension (20 μl) of bacteria at a concentration of 8 logs in a microplate. Growth media (100 μl tryptone soya broth) was added to each well of the microplate and incubated for 20 hours. Bacterial respiration was measured every 30 minutes. Data of the test samples were then compared to un-treated cell suspensions (sterile water added instead of test samples) and percent inhibition calculated.

| SMILES | Result (inhibition of bacterial respiration versus water control) [%] |
| --- | --- |
| C=C1NC(=O)CC1c1ccccc1F (centres unmarked) [5-methylene-4-(2′-fluorophenyl)-dihydropyrrol-2-one] | 79.4 |
| C=C1NC(=O)C=C1c1ccc(Br)cc1 [5-methylene-4-(4′-bromophenyl)-dihydroprrol-2-one] | 82.5 |
